In PubChem BioAssay (NCI):
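Briefly, cells in 96-well plates were exposed to five compound concentrations for 48 h, and endpoints were estimated by linear interpolation. GI50 marks 50% less growth. TGI: concentration producing complete growth inhibition.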

Legend:
Assay in all cases: NCI anticancer screen, dose series, 48 h
[1] = test system: OVCAR-8 ovarian
[2] = test system: RXF 393 renal
[3] = test system: EKVX NSCLC
[4] = test system: UO-31 renal
[5] = test system: CAKI-1 renal
[6] = test system: K-562 leukemia
[7] = test system: HCT-116 colon
[8] = test system: KM12 colon
[9] = test system: HCT-15 colon
[10] = test system: HOP-62 NSCLC
[11] = test system: RPMI-8226 leukemia
[12] = test system: NCI-H460 lung
[13] = test system: MDA-MB-231 breast
[14] = test system: BT-549 breast
[15] = test system: TK-10 renal
[16] = test system: SR leukemia
[17] = test system: LOX IMVI melanoma
[18] = test system: UACC-257 melanoma
[19] = test system: MALME-3M melanoma
[20] = test system: SF-539 CNS
[21] = test system: A549 NSCLC
[22] = test system: ACHN renal
[23] = test system: HL-60(TB) leukemia
[24] = test system: OVCAR-5 ovarian
[25] = test system: NCI/ADR-RES ovarian
[26] = test system: U251 CNS
[27] = test system: SK-OV-3 ovarian
[28] = test system: HOP-92 NSCLC
[29] = test system: MDA-MB-435
[30] = test system: SN12C renal
[31] = test system: NCI-H522 lung
[32] = test system: SK-MEL-2 melanoma
[33] = test system: NCI-H226 lung
[34] = test system: UACC-62 melanoma
[35] = test system: PC-3 prostate
[36] = test system: HT29 colon
[37] = test system: OVCAR-3 ovarian
[38] = test system: OVCAR-4 ovarian
[39] = test system: HCC-2998 colon
[40] = test system: SF-295 CNS
[41] = test system: SK-MEL-5 melanoma
[42] = test system: NCI-H23 lung
[43] = test system: SF-268 CNS
[44] = test system: SNB-75 CNS
[45] = test system: CCRF-CEM leukemia
[46] = test system: COLO 205 colon
[47] = test system: M14 melanoma
[48] = test system: MCF7 breast
[49] = test system: DU-145 prostate
[50] = test system: IGROV1 ovarian
[51] = test system: SNB-19 CNS
[52] = test system: 786-0 renal
[53] = test system: SW-620 colon
[54] = test system: HS 578T breast
[55] = test system: MOLT-4 leukemia
[56] = test system: T-47D breast
[57] = test system: SK-MEL-28 melanoma

For `CCNCc1c(-c2cccc(OC(F)(F)F)c2)[nH]c2ccc(N3CCCC3)cc2c1=O`, the GI50 [1] was 5.22 µM, the TGI [1] was over 100 µM and the GI50 [2] was 2.39 µM. The TGI [2] was 7.61 µM, the GI50 [3] was 12.3 µM and the TGI [3] was over 100 µM. It also gave a GI50 [4] of 3.72 µM, a TGI [4] of over 100 µM and a GI50 [5] of 3.54 µM. For the same molecule, the TGI [5] was 17.6 µM, the GI50 [6] was 3.4 µM and the TGI [6] was over 100 µM. It also gave a GI50 [7] of 3.46 µM, a TGI [7] of 35.4 µM and a GI50 [8] of 3.54 µM. For the same molecule, the TGI [8] was 20.7 µM, the GI50 [9] was 3.47 µM and the TGI [9] was 15.9 µM. The GI50 [10] was 5.63 µM, the TGI [10] was 73.8 µM and the GI50 [11] was 2.44 µM. It also gave a TGI [11] of 6.85 µM, a GI50 [12] of 3.72 µM and a TGI [12] of 16.2 µM. It also gave a GI50 [13] of 2.69 µM, a TGI [13] of 9.28 µM and a GI50 [14] of 4.84 µM. It also gave a TGI [14] of 44.6 µM, a GI50 [15] of 24.7 µM and a TGI [15] of over 100 µM. It also gave a GI50 [16] of 2.71 µM, a TGI [16] of 12.4 µM and a GI50 [17] of 3.31 µM. It also gave a TGI [17] of 12.5 µM, a GI50 [18] of 2.35 µM and a TGI [18] of 6.08 µM. It also gave a GI50 [19] of 1.99 µM, a TGI [19] of 4.41 µM and a GI50 [20] of 2.24 µM. The TGI [20] was 5.85 µM, the GI50 [21] was 5.81 µM and the TGI [21] was over 100 µM. For the same molecule, the GI50 [22] was 6.73 µM, the TGI [22] was over 100 µM and the GI50 [23] was 2.86 µM. The TGI [23] was 9.69 µM, the GI50 [24] was 3.81 µM and the TGI [24] was 43.5 µM. The GI50 [25] was 2.48 µM, the TGI [25] was 7 µM and the GI50 [26] was 3.23 µM. For the same molecule, the TGI [26] was 14.8 µM, the GI50 [27] was 7.19 µM and the TGI [27] was over 100 µM. It also gave a GI50 [28] of 4.19 µM, a TGI [28] of 38.4 µM and a GI50 [29] of 1.95 µM. For the same molecule, the TGI [29] was 4.32 µM, the GI50 [30] was 4.12 µM and the TGI [30] was 46.4 µM. It also gave a GI50 [31] of 3.98 µM, a TGI [31] of 23.1 µM and a GI50 [32] of 3.73 µM. The TGI [32] was 17.2 µM, the GI50 [33] was 9.29 µM and the TGI [33] was over 100 µM. It also gave a GI50 [34] of 3.47 µM, a TGI [34] of 14.3 µM and a GI50 [35] of 3.87 µM. The TGI [35] was over 100 µM, the GI50 [36] was 3.53 µM and the TGI [36] was over 100 µM. It also gave a GI50 [37] of 3.45 µM, a TGI [37] of 20.3 µM and a GI50 [38] of 7.77 µM. The TGI [38] was over 100 µM, the GI50 [39] was 1.88 µM and the TGI [39] was 3.58 µM. The GI50 [40] was 1.97 µM, the TGI [40] was 4.06 µM and the GI50 [41] was 2.09 µM. The TGI [41] was 4.42 µM, the GI50 [42] was 3.15 µM and the TGI [42] was 10.7 µM. For the same molecule, the GI50 [43] was 6.44 µM, the TGI [43] was 69.2 µM and the GI50 [44] was 1.42 µM. It also gave a TGI [44] of 8.65 µM, a GI50 [45] of 3.52 µM and a TGI [45] of over 100 µM. It also gave a GI50 [46] of 2.36 µM, a TGI [46] of 5.74 µM and a GI50 [47] of 1.95 µM. The TGI [47] was 4.28 µM, the GI50 [48] was 2.57 µM and the TGI [48] was 11.2 µM. For the same molecule, the GI50 [49] was 3.8 µM, the TGI [49] was over 100 µM and the GI50 [50] was 3.54 µM. It also gave a TGI [50] of over 100 µM, a GI50 [51] of 4.03 µM and a TGI [51] of over 100 µM. It also gave a GI50 [52] of 3.84 µM, a TGI [52] of 20.6 µM and a GI50 [53] of 3.17 µM. It also gave a TGI [53] of 13.7 µM, a GI50 [54] of 1.94 µM and a TGI [54] of 6.48 µM. It also gave a GI50 [55] of 3.88 µM, a TGI [55] of 37.3 µM and a GI50 [56] of 4.78 µM. It also gave a TGI [56] of 59.3 µM, a GI50 [57] of 2.25 µM and a TGI [57] of 5.51 µM.
